Biological target: MtbIspE (Mycobacterium tuberculosis, UniProt P9WKG7)
Assay: target-directed dynamic combinatorial chemistry (tdDCC), amplification of acylhydrazones in protein-templated vs blank DCL (HPLC-MS/MS, UV 310 nm)
Format: binding
Description: In this study, we used MtbIspE as target protein and the reversible reaction of hydrazides and aldehydes to form dynamic combinatorial libraries (DCLs) of acylhydrazones. […] To accelerate the reaction at neutral pH, aniline was used as nucleophilic catalyst activating the aldehydes.[2],[4],[19] We analyzed the protein’s effect on the DCLs by comparing HPLC-MS/MS data of blank vs protein-templated (PT) experiments. The experiments spanned 3 days, with periodic sampling (every 2 h, followed by two samples per day after 8 h). The addition of NaOH to raise the pH and halt the reactions ensured the sample composition was preserved for analysis.[19] Templated experiments were conducted in duplicate, and the protein was denatured and removed prior to HPLC-MS/MS analysis.
The tdDCC hits and thus potential MtbIspE binders are amplified in the PT experiment compared to the blank experiment. The first step in the analysis of DCLs is the determination of the equilibrium since the amplification factors need to be calculated when the concentration of products is stable. To determine the evolution of the possible products, it is important to measure the characteristic UV absorbance of the acylhydrazones linker (310 nm) during the HPLC-MS/MS run. The resulting UV peaks are assigned to each product using the MS data (Figures S3–S6). The sum of all peak areas is normalized to 100% in order to obtain the respective relative peak area (RPA) for each product. The RPA values represent relative concentrations, determined at each time point of the blank experiment until the values stabilize. […] However, the rest of the compounds are out of range, making a visual inspection difficult. […] The other three libraries behaved in the same way, reaching equilibrium within 24 h and also maintained stable concentrations beyond (Figures S7–S9). To determine the tdDCC hits, we compared the RPAs of the PT experiments to the blanks at 24 h and set a threshold of at least 50% increase in compound formation. In total, 11 acylhydrazones passed our criteria, with amplification factors ranging from […] to 15.5, qualifying them for resynthesis and further evaluation (Figure 3). During the analysis of chromatograms, challenges arose concerning product identification. Some compound peaks were not neatly separated, forcing us to consider them in clusters, others presented two peaks, likely due to isomers, and were considered separately in our evaluation. Lastly, some compounds were detected by MS, but their respective UV signal interfered with the injection peak or was too low for integration (<1%), both in the blank and PT experiments. Consequently, we excluded these compounds from the analysis (Figure S3–S6).
To a well of a 24-well plate, containing Tris buffer (pH 7.0) were added hydrazides (300 μM each, in DMSO), aldehydes (100 μM each, in DMSO), aniline (20 mM, in DMSO), the protein MtbIspE (25 or 40 μM in Tris buffer at pH 7.0), and an additional amount of DMSO to reach a final concentration of 5% in the DCL with 0.5 mL of end-volume. The DCL was allowed to mix on a plate shaker at room temperature and was frequently monitored via LCMS-MS. For analysis, 30 μL of the corresponding library was mixed with 42 μL acetonitrile and 3 μL of NaOH (1 M), the mixture was centrifuged, and the supernatant was used for the analysis. PT experiments were run in duplicates and the protein was omitted for the blank experiments.
High-resolution mass (HRMS) of final products was determined by HPLC-MS/MS using a Thermo Scientific Q Exactive Focus Orbitrap LC -MS/MS system. All compounds were analyzed for purity by LCMS on Acquity UPLC-SQD system from Waters with a gradient elution of Water (Formic acid 0.1%)/Acetonitrile on an HSS - T3 column (2.1 x 50 mm, Waters), 1.8 µm, at 30°C, PDA detection between 240 -320 nm, and MS detection by simultaneous ES+/ES- ionization in a mass range of 150 -800. The flow is set to 0.9 ml/min, and the […]
gradient time is 1.5 min. […]

Sequence of MtbIspE (P9WKG7 whole entry): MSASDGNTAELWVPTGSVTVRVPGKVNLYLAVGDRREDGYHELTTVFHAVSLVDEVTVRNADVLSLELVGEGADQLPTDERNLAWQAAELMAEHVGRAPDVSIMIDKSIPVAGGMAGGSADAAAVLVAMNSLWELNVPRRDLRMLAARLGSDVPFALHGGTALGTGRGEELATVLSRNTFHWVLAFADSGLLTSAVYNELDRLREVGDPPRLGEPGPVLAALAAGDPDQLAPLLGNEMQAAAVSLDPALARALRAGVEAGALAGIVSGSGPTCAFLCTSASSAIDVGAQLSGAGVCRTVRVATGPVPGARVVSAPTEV

O=C(N/N=C/c1cc(Cl)ccc1O)c1ccncc1 [L1, (E)-N′-(5-Chloro-2-hydroxybenzylidene)isonicotinohydrazide]
Amplification factors (DCL-3) (DCL-3, 24 h, 40 mol % MtbIspE, I1 and K1 integrated as one cluster): 4.1

COc1ccc(-c2cc(/C=N/NC(=O)c3cc(CC(C)C)n[nH]3)no2)cc1 [D6, (E)-3-Isobutyl-N′-((5-(4-methoxyphenyl)isoxazol-3-yl)methylene)-1H-pyrazole-5-carbohydrazide]
Amplification factors (DCL-4) (DCL-4, 24 h, 40 mol % MtbIspE): 1.0

O=C(N/N=C/c1ccc(C(F)(F)F)cc1)c1cccc(Cl)c1 [K4, (E)-3-Chloro-N′-(4-(trifluoromethyl)benzylidene)benzohydrazide]
Amplification factor (DCL-2, control compound) (DCL-2, 40 mol % MtbIspE): 0.0
